According to patent US8987201B2, “Black bear parathyroid hormone and methods of using black bear parathyroid hormone” (Michigan Technological University, priority 2009, dated 2015):
Entries after “also recorded” stand apart in the source; their conditions may differ.

Experiments:
MC-3T3 cells = assay: Gene expression by real-time PCR in MC-3T3 cells (Example 11); type: cell-based; details: 100 nM
Experimental: MC-3T3 cells were incubated in vehicle or 100 nM synthetic bear or human PTH 1-34 for 3 or 6 hours (n=2 or 4). Total RNA was isolated, and cDNA was generated with reverse transcription. Primers for the bone matrix proteins type I collagen and osteocalcin, the pro-apoptotic protein Bax, the anti-apoptotic protein Bcl-2, and the housekeeping genes Gapdh, β-actin, and cyclophillin were designed using PrimerQuest software (Integrated DNA Technologies, Coralville, Iowa). Real-time PCR was performed using the Mx3000P real-time PCR system (Stratagene, LaJolla, Calif.). All samples were measured in duplicate. Gene expression was determined using the relative standard curve method normalized to the geometric mean of the three housekeeping genes (Gapdh, β-actin, and cyclophillin). Apoptosis-related genes were analyzed as the expression ratio of Bax/Bcl-2, since a decrease in this ratio is associated with decreased apoptosis in vitro.

[1] = tested on: ovariectomized (OVX) Sprague-Dawley rats; assay: In vivo rat OVX dose response study: bone μCT and bone strength
Experimental: Ninety female, 3-month old Sprague-Dawley rats were obtained. Eighty (80) of the rats were ovariectomized (OVX) and ten (10) underwent a sham OVX procedure (sham OVX) in which the ovaries were left in the animal. The OVX animals were randomly assigned into groups of ten for further experiments.
Following the actual or sham OVX procedure, all animals were untreated for 6 weeks to allow bone loss. After the 6 week period of bone loss, groups of animals were injected for a six- or eight-week period (daily for five days per week) with vehicle (saline) or 3, 10, or 30 μg/kg bear or human PTH1-34. […] The sham OVX group as well as one group of actual OVX rats were euthanized at six weeks while the remaining animals were euthanized at fourteen weeks following the OVX procedure. Samples were obtained from the euthanized animals for further analysis.
Three-dimensional images of bones were obtained using micro-computed tomography (μCT). The three-dimensional images were then used to quantify bone parameters, as explained below. The measurements were conducted on a 1.6 mm-thick region that begins at a position 2 mm from the growth plate (FIG. 8). Bone samples were obtained and analyzed from sham (FIG. 9A, “Sham OVX 6 weeks”) and actual (FIG. 9B, “OVX 6 weeks”) OVX rats that were euthanized at six weeks after the procedure, as well as a group of actual OVX rats that were euthanized at fourteen weeks after the procedure (FIG. 9C, “OVX 14 weeks”). The rats in the OVX 14 group were given injections of vehicle (saline) for 8 weeks following the 6 week bone loss period, in parallel with the PTH1-34 injections for eight weeks (FIGS. 9D, 9E, and 9F). The samples shown in FIGS. 9D, 9E, and 9F were obtained from rats that were injected for eight weeks following the 6 week bone loss period, with 3, 10, or 30 μg/kg black bear PTH1-34 (“bbPTH”), respectively.

Male Swiss-Webster mice = assay: Cortical bone dynamic histomorphometry in the femur (calcein labels); type: in vivo, mouse; details: femoral midshaft, 2.5 nmol/kg s.c., 8 weeks, SD in parentheses
From the text: All handling procedures and experiments were approved by the Michigan Technological University Institutional Animal Care and Use Committees. Male Swiss-Webster mice were obtained from a commercial breeder (Harlan, Indianapolis, Ind.). All animals were maintained on a 12-h light/12-h dark cycle, and were permitted free access to water and food containing 0.95% calcium (Purina Rodent Diet #5001).
In the first experiment, 11 wk old mice received daily (5 days/week) subcutaneous injections of 2.5 nmol/kg PTH 1-34 (hPTH 1-34 or bbPTH 1-34) or acidic saline vehicle (0.15 M NaCl+0.001 N HCl) for 8 weeks (n=10 mice/group). In the second experiment, 12 wk old mice received daily (5 days/week) subcutaneous injections of 2.5 nmol/kg PTH 1-84 (hPTH 1-84 or bbPTH 1-84) or acidic saline vehicle for 8 weeks (n=10 mice/group). All PTH- and vehicle-treated animals received subcutaneous injections of calcein at a dosage of 10 mg/kg on days 12 and 3 before death to label mineralizing bone surfaces. Twenty-four hours following the last treatment injection, mice were sacrificed by carbon dioxide asphyxiation. Right femurs were fixed in 10% neutral buffered formalin. Left femurs were wrapped in 0.15M saline soaked gauze and stored at −20 deg C. Left tibias were stored in 70% ethanol at 4 deg C.
Following the bending test, the left femoral diaphyses were ashed in a furnace to determine mineral content (ash fraction). Right femoral diaphyses were embedded in methyl methacrylate and sectioned with a diamond saw to expose the midshaft cross-section. Images of the midshaft cross-sections were captured using a digital camera (Spot Insight QE, Diagnostic Instruments Inc., Sterling Heights, Mich.), and Scion Image analysis software (Scion Corporation, Frederick, Md.) was used to calculate the periosteal area (Ps.Ar), cortical area (Ct.Ar), and endosteal area (Es.Ar) for each sample. Cortical bone thickness (Ct.Th) was calculated in 0.1 mm increments for each anatomical quadrant and for the entire cross-section using image analysis software (Bioquant Osteo, Nashville, Tenn.). Thin sections from the midshaft of the right femur were ground to a thickness of 50 μm and mounted on glass slides. Images of calcein labels were captured at 100× magnification and periosteal and endosteal mineral apposition rates (Ps.MAR and Es.MAR, respectively) and mineralizing surfaces (Ps.MS/BS and Es.MS/MS) were quantified (Bioquant) for each femur.
All bone geometrical, architectural, and mineral properties were normalized by body mass to account for potential variation in animal size (31-33). Trabecular bone properties quantified by micro-computed tomography were compared by ANOVA between vehicle, bear, and human PTH-treated mice within each study (PTH 1-34 or PTH 1-84). The microCT parameters were not directly compared between the PTH 1-34 and PTH 1-84 studies because analyses were conducted on different microCT machines. For all other bone properties, all six experimental groups (from both the PTH 1-34 and PTH 1-84 studies) were compared with ANOVA and Fisher's PLSD. A significance of p<0.05 was used for all comparisons.

procollagen-1 mRNA = details: Nasu et al., 1998; cited from earlier work
male mice = details: Sakai et al. 1999, cited from earlier work

With human PTH 1-34 [hPTH 1-34] the “expression ratio of Bax/Bcl-2” value (MC-3T3 cells; 3 hours, n=4, bear vs human p=0.047) was “increases”, the “expression of type I collagen compared to the vehicle control” value (MC-3T3 cells; 6 hours) was “did not affect” and the “expression of osteocalcin compared to the vehicle control” value (MC-3T3 cells; 6 hours, n=2) was “substantially upregulated; also recorded: upregulate”. For the same substance, the “average thickness of the trabecular struts (Tb.Th) compared to vehicle-treated controls” value ([1]; OVX rats) was “significantly (p<0.05) increased”, the “increasing tibial cortical bone volume (BV), human vs bear” value ([1]; OVX rats) was “better than bear PTH1-34” and the “trabecular bone mineralization (M.Dn) vs vehicle (saline) alone” value ([1]; OVX rats) was “significantly (p<0.05) greater trabecular bone mineralization”. The “bone mineral apparent density, hPTH vs bbPTH” value ([1]; OVX rats, 30 μg/kg) was “significantly higher (p<0.05)”, the “bone mineral apparent density (App.Dn) vs vehicle (saline) alone” value ([1]; OVX rats, 3, 10, or 30 μg/kg) was “significantly higher (p<0.05)” and the “bone volume as a fraction of total volume (BV/TV) vs vehicle (saline) alone” value ([1]; OVX rats, 3, 10, or 30 μg/kg) was “significantly (p<0.05) greater bone volume fraction than treatment with vehicle (saline) alone at all three levels tested”. For the same substance, the “bone volume fraction, human PTH vs bear PTH” value ([1]; OVX rats, highest dose of 30 μg/kg) was “significantly (p<0.05) greater”, the “tibial cortical porosity relative to vehicle (saline) alone” value ([1]; OVX rats, middle (10 μg/kg) and higher doses (30 μg/kg)) was “significantly (p<0.05) decreased” and the “femoral cortical bone strength relative to vehicle-treated controls” value ([1]; OVX rats, only higher doses (30 μg/kg)) was “significant (p<0.05) increases”. For the same substance, the “Endosteal MAR” value (Male Swiss-Webster mice) was 0.56 (0.18), the “Endosteal MS/BS” value (Male Swiss-Webster mice) was 39.3 (17.7) and the “Periosteal MAR” value (Male Swiss-Webster mice) was 0.53 (0.21). For the same substance, the “Periosteal MS/BS” value (Male Swiss-Webster mice) was 24.0 (13.8), the “production of procollagen-1 mRNA” value (procollagen-1 mRNA) was “down-regulates” and the “trabecular thickness (Tb.Th) or mineral apposition rates (MAR) in the proximal tibia” value (male mice; daily injections of 1 nmol/kg for 6 weeks) was “did not affect”. The “trabecular thickness (Tb.Th) and mineral apposition rates (MAR) in the proximal tibia” value (male mice; higher molar dosage (˜10 nmol/kg)) was “increased”.
